Earlier results as cited in patent US20250064831A1 (Acerus Biopharma Inc., priority 2012, published 2025).

Key:
[1] = in vivo
[2] = polyethylene glycol (200 mg/ml), high variations
[3] = progesterone/cyclodextrin powder mixtures, nasal

Q: With CN(C)CC(=O)O[C@H]1CC[C@H]2[C@@H]3CCC4=CC(=O)CC[C@]4(C)[C@H]3CC[C@]12C [testosterone 17β-N,N-dimethylglycinate] as the compound, how does the elimination half-lives [1] read?
A: Its elimination half-lives is “about 55 min”.

Q: With CC(=O)[C@H]1CC[C@H]2[C@@H]3CCC4=CC(=O)CC[C@]4(C)[C@H]3CC[C@]12C [progesterone] as the compound, how does the “duration of serum level” value [2] read?
A: The value was “at least 8 hours”.

Q: And the serum level decrease [3]?
A: Its serum level decrease is at most 20 min.
